The values below are quoted from earlier work in patent US8394309B2, “Resin film and method for producing it, polarizer and liquid crystal display device” (FUJIFILM Corporation, priority 2010, dated 2013).

For this data set the following is noted: Table 1.

For `O=C(O)CC(O)(CC(=O)O)C(=O)O` [Citric acid, reference compound], the “Organic acid: Acid dissociation constant” value is 4.0.
As for `CCCCCCCC/C=C/CCCCCCCC(=O)OCC(O)COC(=O)CC(O)(CC(=O)O)C(=O)O` (centres unmarked) [Citric and oleic acid esters of glycerol, citric and oleic acid esters of glycerol], the “Organic acid: Acid dissociation constant” value is reported as 3.2.
For the molecule `O=C(O)CN(CC(=O)O)Cc1ccccc1` [N-benzylimino-diacetic acid, N-benzyliminodiacetic acid], the “Organic acid: Acid dissociation constant” value is 3.2.
On to `CCCCCCCC/C=C\CCCCCCCC(=O)O` [Oleic acid], for which the “Organic acid: Acid dissociation constant” value is listed as 4.9.
In the case of `CCCCOB(OCCCC)OCCCC` [Tributyl borate, reference compound], the “Organic acid: Acid dissociation constant” value is 6.0.
With `CCCCCCCCCCC(=O)O` [Undecanoic acid], the “Organic acid: Acid dissociation constant” value is reported as 4.8.
As for `CCCCC(=O)O` [Valeric acid, reference compound], the “Organic acid: Acid dissociation constant” value was 4.8.
In the case of `CCCCCCCCCCCCN(CC(=O)O)CC(=O)O` [lauramino-diacetic acid, lauraminodiacetic acid], the “Organic acid: Acid dissociation constant” value is listed as 4.5.
